# Key:
# [1] = human, in vivo
# Protocol: The 40 patients were randomly allocated to four groups at a ratio of 1:1:1:1. […] The detection linear range was as below: • Compound I: Lower Limit Of Quantitation (LLOQ): 1.00 ng/mL; Upper Limit Of Quantitation (ULOQ): 1,000 ng/mL • Rabeprazole sodium: LLOQ: 2.00 ng/mL; […] […] Pharmacokinetics Evaluation Plasma drug concentrations of various groups at different time points were determined, including: arithmetic mean, standard deviation, minimum, median, maximum, geometric mean, coefficient of variation, and coefficient of geometric variation. The pharmacokinetic parameters calculated from the first and last administration were descriptively analyzed according to various trial groups, including: arithmetic mean, standard deviation, minimum value, median, maximum value, geometric mean, coefficient of variation, geometric coefficient of variation, etc. In addition, the accumulation index AUC0-tau, ss(D15)/AUC0-tau (D1) was calculated. […]
# [2] = test system: Helicobacter pylori; test: H. pylori eradication by 14C UBT test (Example 2); assay type: in vivo; details: BID × 14 day; for UBT results Negative / UBT results Positive: treatment group A: Compound I capsule 400 mg + rabeprazole sodium 20 mg + amoxicillin 1 g
# Protocol: In this example, 80 patients that are positive for Helicobacter pylori infection were admitted to the trial. The 80 patients were randomly allocated to 5 groups at a ratio of 2:2:1:1:2, including 4 treatment groups and 1 control group, and the dosage regimen is shown in Table 4.
# Patients were administered with the combination therapy daily according to the dosing regimen of the respective group from day 1 to day 14, and the last dose was administered in the morning of day 15. Pharmacokinetic blood samples were collected at the scheduled time point during the trial and patiented to a safety tolerance assessment and ^14C UBT test. All patients left the hospital after completing the safety tolerance assessment and PK blood collection on the 17th day (day 17), and returned to the research institution for follow-up visits from the 44th to 50th day (day 44-day 50). Follow-up of adverse events and laboratory abnormalities continued until the patients completely recovered or returned to baseline levels or stable states. Safety tolerance assessment, and ^14C UBT tests were performed to assess H. pylori eradication effects.
# The administration regimen was as follows: • Group A, Group B and Control Group: • Twice per day, the combination therapy was administered orally within 30 mins after breakfast and dinner, respectively, and the combination therapy was administered for 14 days consecutively. On day 15, the last administration was provided within 30 mins after breakfast. Each patient was administered for 29 times in total. • Group C and Group D: • Three times per day, and two administrations were separated by about 8 hours.
# Patients were examined with ^14C UBT test during the screening period (D-14˜D-2), baseline period (D-1), day 8 (D8), day 16 (D16) and days 44˜50 (D44˜D50). The test was done fasting before breakfast to determine the effects of H. pylori eradication in each group.
# • Full Analysis Set (FAS): refers to all randomized patients who have been administered with the combination therapy of the present disclosure at least once; • Modified Intentionality Analysis Set (mITT): refers to all randomized patients who underwent a ^14C UBT test on days 28 to 34 after the last administration; • Protocol-compliant Set (PP): refers to patients who have not experienced major protocol violations: randomized and treated with more than 80% (including 80%) of the total amount of the drug expected to be used in the investigation, and who were tested for ^14C UBT on days 28 to 34 after the last administration; • Safety Analysis Set (SS): refers to the patients who have entered the trial and have been administered the combination therapy of the present disclosure at least once; • Pharmacokinetic Concentration Analysis Dataset (PKCS): refers to all enrolled patients who have been administered with the combination therapy of the present disclosure and had at least one PK concentration observation; • Pharmacokinetic Parameter Analysis Dataset (PKPS): Refers to all enrolled patients who have been administered with the combination therapy of the present disclosure and had at least one PK parameter observation data point. Demographic Analysis: • Demographic analysis was based on Full Analysis Set (FAS). Descriptive statistical analysis of all demographics (age, sex, weight, height, BMI, ethnicity, etc.) and baseline characteristics, based on the measurement of the last valid data before the administration of the combination therapy of the present disclosure. Evaluation of the Eradication Effect of Helicobacter pylori: • The eradication effect analysis was performed with the Full Analysis Set (FAS), based on the results of four ^14C UBT tests (negative or positive) in group A, group B, group C, and control groups at baseline, on day 8, day 16, and follow-up days 44 to 50, and three ^14C UBT test results (negative or positive) in group D at baseline, on day 8, and follow-up days 37 to 43. […]
# [3] = Day 8 after administration, FAS N = 20
# [4] = Day 8 after administration, mITT N = 19
# [5] = Day 16 after administration, FAS N = 20
# [6] = Day 16 after administration, mITT N = 19
# [7] = Follow up period (Day 44~Day 50), FAS N = 20
# [8] = Follow up period (Day 44~Day 50), mITT N = 19
smiles,measurement,setting,value
"CO[C@H]1/C=C/O[C@@]2(C)Oc3c(C)c(O)c4c(c3C2=O)C2=NC3(CCN(CCn5c([N+](=O)[O-])cnc5C)CC3)NC2=C(NC(=O)/C(C)=C\C=C\[C@H](C)[C@H](O)[C@@H](C)[C@@H](O)[C@@H](C)[C@H](OC(C)=O)[C@@H]1C)C4=O [Compound I, 4-Deoxy-3,4-[2-spiro-[1-[2-(2-methyl-5-nitro-imidazol-1-yl)ethyl]-piperidin-4-yl]]-(1H)-imidazo-(2,5-dihydro)rifamycin]",Effect of rabeprazole and amoxicillin on the pharmacokinetic profile of Compound I,[1],no significant effect
same,UBT results Negative,[2]; [3],18 (90.0) n(%)
same,UBT results Positive,[2]; [3],1 (5.0) n(%)
same,UBT results Negative,[2]; [4],18 (94.7) n(%)
same,UBT results Positive,[2]; [4],1 (5.3) n(%)
same,UBT results Negative,[2]; [5],18 (90.0) n(%)
same,UBT results Positive,[2]; [5],1 (5.0) n(%)
same,UBT results Negative,[2]; [6],18 (94.7) n(%)
same,UBT results Positive,[2]; [6],1 (5.3) n(%)
same,UBT results Negative,[2]; [7],18 (90.0) n(%)
same,UBT results Positive,[2]; [7],1 (5.0) n(%)
same,UBT results Negative,[2]; [8],18 (94.7) n(%)
same,UBT results Positive,[2]; [8],1 (5.3) n(%)
same,Eradication rate (mITT set) of Helicobacter pylori,"[2]; treatment group A: combination therapy of compound I, rabeprazole sodium and amoxicillin",94.7%
